Columns and labels:
[1] = SAXS liquid crystal structure analysis of gel compositions; format: physicochemical; settings: amphiphilic compound mixed with water alone
Excerpt: The gel compositions formed from the precursor formulations Nos. 1 to 23 were each directly embedded in a pinhole slit and subjected to small-angle X-ray scattering diffractometry with a small-angle x-ray scattering (SAXS) apparatus (manufactured by Rigaku Corp., Nano-Viewer) to analyze the non-lamellar liquid crystal structure.
The obtained liquid crystal phases and scattering vector values q1 [nm^−1] of peaks located at the smallest angle are shown in Tables 1 and 2. […] There were some gel compositions having two types of different liquid crystal phases.

[2] = Gel formation test with water; format: physicochemical; settings: amphiphilic compound mixed with water alone, no phospholipid
Method: (§1) The precursor formulations Nos. 1 to 23 were subjected to gel formation test. A portion (about 100 to 300 mg) of each precursor formulation was added to an excess amount (about 0.5 to 2 mL) of water for injection in a vial, and the whole was mixed at room temperature (25° C.) with a spatula and/or a vortex mixer.
The precursor formulations Nos. 26 to 31 were subjected to gel formation test in a similar manner to that in Example 2.
as §1, with “Nos. 36” for “Nos. 1”, “to 40” for “to 23”

SMILES | liquid crystal phase [1] | q1 [1] [nm⁻¹] | gel composition formation [2]
CCCCCCCC/C=C\CCCCCCCC(=O)OCCOCCO [diethylene glycol monooleate, Diethylene glycol monooleate] | HII | 1.35 | formed a gel composition
CCCCC/C=C\C/C=C\CCCCCCCC(=O)OC1COC2C(O)COC12 (stereo not drawn) [isosorbide monolinoleate] | – | – | failed to form a gel composition
CCCCC/C=C\C/C=C\CCCCCCCC(=O)OCCC(C)(C)O [3-methyl-1,3-butanediol monolinoleate] | – | – | failed to form a gel composition
CCCCC/C=C\C/C=C\CCCCCCCC(=O)OCCC(C)O (stereo not drawn) [1,3-Butylene glycol monolinoleate] | – | – | failed to form a gel composition
